Results: patent publication US5101048A, “β-D-phenylthioxylosides, their method of preparation and their use as therapeutic agents” (Fournier Industrie et Sante, priority 1988, dated 1992)

Legend:
[1] = Venous thrombosis: venous stasis under hypercoagulation (Wessler), thrombus removed and weighed; type: in vivo, male Wistar rats; conditions: Rattus norvegicus, po, suspension in PEG 400, thrombosis induced 4 hours after treatment; for inhibition in vivo at 3 mg/kg: 3 mg/kg administered orally; for inhibition in vivo at 12.5 mg/kg: 12.5 mg/kg administered orally
Procedure: A venous stasis under hypercoagulation is produced according to the technique described by WESSLER et al. (J. Applied Physiol. 1959, p. 943-946). As in the technique described by J. HAUPMAN et al. (Thrombosis and Haemostasis 43(2), 1980, p. 118), the hypercoagulant used is a solution of activated factor X (Xa) supplied by Flow Laboratories (71 Knat per 12.5 ml of physiological serum).
The study is performed on unfasted male Wistar rats weighing 250 to 280 g, divided into groups of 10 animals each. The products to be tested are administered orally as a suspension in PEG 400. A thrombosis is induced 4 hours after this treatment and the thrombus formed is removed and weighed.
The results obtained at doses of 3 mg/kg or 12.5 mg/kg, administered orally, have been collated in Table II. The results obtained with the known products of the above-mentioned prior art have also been collated in this Table.

[2] = as above; type: in vivo, male Wistar rats; conditions: 50 mg/kg administered orally

Row | Structure (SMILES) | inhibition in vivo at 3 mg/kg [1] | inhibition in vivo at 12.5 mg/kg [1] | % inhibition at 50 mg/kg (footnote) [2]
1 | N#Cc1ccc(S[C@@H]2SC[C@@H](O)[C@H](O)[C@H]2O)cc1 [Example 1, 4-cyanophenyl 1,5-dithio-β-D-xylopyranoside] | 53% | 90% | –
2 | CC(=O)O[C@@H]1[C@@H](OC(C)=O)[C@H](Sc2ccc(C#N)cc2)SC[C@H]1OC(C)=O [Example 1a, 4-cyanophenyl 2,3,4-tri-O-acetyl-1,5-dithio-β-D-xylopyranoside] | 30% | 90% | –
3 | O=[N+]([O-])c1ccc(S[C@@H]2SC[C@@H](O)[C@H](O)[C@H]2O)cc1 [Example 2, 4-nitrophenyl 1,5-dithio-β-D-xylopyranoside] | 35% | 78% | –
4 | O[C@@H]1[C@@H](O)[C@H](Sc2ccc3ccccc3c2)SC[C@H]1O [Example 3, 2-naphthalenyl 1,5-dithio-β-D-xylopyranoside] | – | 38% | –
5 | O[C@@H]1[C@@H](O)[C@H](Sc2ccc(C(F)(F)F)cc2)SC[C@H]1O [Example 4, 4-trifluoromethylphenyl 1,5-dithio-β-D-xylopyranoside] | – | 66% | –
6 | N#Cc1cccc(S[C@@H]2SC[C@@H](O)[C@H](O)[C@H]2O)c1 [Example 5, 3-cyanophenyl 1,5-dithio-β-D-xylopyranoside] | 28% | 79.5% | –
7 | N#Cc1ccccc1S[C@@H]1SC[C@@H](O)[C@H](O)[C@H]1O [Example 6, 2-cyanophenyl 1,5-dithio-β-D-xylopyranoside] | 35% | 88.6% | –
8 | O=[N+]([O-])c1ccccc1S[C@@H]1SC[C@@H](O)[C@H](O)[C@H]1O [Example 7, 2-nitrophenyl 1,5-dithio-β-D-xylopyranoside] | 33% | 96.7% | –
9 | N#Cc1ccc2cc(S[C@@H]3SC[C@@H](O)[C@H](O)[C@H]3O)ccc2c1 [Example 8, 2-(6-cyanonaphthalenyl) 1,5-dithio-β-D-xylopyranoside] | 31% | 94.7% | –
10 | O[C@@H]1[C@@H](O)[C@H](Sc2ccccc2)SC[C@H]1O [Example 9, phenyl 1,5-dithio-β-D-xylopyranoside] | – | 11% | 82%
11 | COc1cc(S[C@@H]2SC[C@@H](O)[C@H](O)[C@H]2O)cc(OC)c1OC [Example 10, 3,4,5-trimethoxyphenyl 1,5-dithio-β-D-xylopyranoside] | – | 36.5% | –
12 | COc1cc(S[C@@H]2SC[C@@H](OC(C)=O)[C@H](OC(C)=O)[C@H]2OC(C)=O)cc(OC)c1OC [Example 10a, 3,4,5-trimethoxyphenyl 2,3,4-tri-O-acetyl-1,5-dithio-β-D-xylopyranoside] | – | 62% | –
13 | CC(=O)c1ccc(S[C@@H]2SC[C@@H](O)[C@H](O)[C@H]2O)cc1 [Example 11, 4-acetylphenyl 1,5-dithio-β-D-xylopyranoside] | 47% | 98.3% | –
14 | O=[N+]([O-])c1cccc(S[C@@H]2SC[C@@H](O)[C@H](O)[C@H]2O)c1 [Example 12, 3-nitrophenyl 1,5-dithio-β-D-xylopyranoside] | – | 69% | –
15 | O[C@@H]1[C@@H](O)[C@H](Sc2ccccc2C(F)(F)F)SC[C@H]1O [Example 13, 2-trifluoromethylphenyl 1,5-dithio-β-D-xylopyranoside] | – | 23% | –
16 | N#Cc1ccc(-c2ccc(S[C@@H]3SC[C@@H](O)[C@H](O)[C@H]3O)cc2)cc1 [Example 14, 4-(4-cyanophenyl)phenyl 1,5-dithio-β-D-xylopyranoside] | 27% | 86% | –
17 | N#Cc1ccc(S[C@@H]2SC[C@@H](O)[C@H](O)[C@H]2O)c(C#N)c1 [Example 16, 2,4-dicyanophenyl 1,5-dithio-β-D-xylopyranoside] | 42.5% | 99.5% | –
18 | CC(=O)O[C@@H]1[C@@H](OC(C)=O)[C@H](Sc2ccc(C#N)cc2C#N)SC[C@H]1OC(C)=O [Example 16a, 2,4-dicyanophenyl 2,3,4-tri-O-acetyl-1,5-dithio-β-D-xylopyranoside] | – | 72.8% | –
19 | N#Cc1cc(C#N)c(S[C@@H]2SC[C@@H](O)[C@H](O)[C@H]2O)c(C#N)c1 [Example 17, 2,4,6-tricyanophenyl 1,5-dithio-β-D-xylopyranoside] | 8% | 40% | –
20 | Nc1ccc(S[C@@H]2SC[C@@H](O)[C@H](O)[C@H]2O)cc1 [Example 18, 4-aminophenyl 1,5-dithio-β-D-xylopyranoside] | 30% | 93% | –

Row | Structure (SMILES) | inhibition in vivo at 3 mg/kg [1] | inhibition in vivo at 12.5 mg/kg [1] | % inhibition at 50 mg/kg (footnote) [2]
21 | CC(=O)Nc1ccc(S[C@@H]2SC[C@@H](O)[C@H](O)[C@H]2O)cc1 [Example 19, 4-acetamidophenyl 1,5-dithio-β-D-xylopyranoside] | 61% | 93% | –
22 | CC(=O)Nc1ccc(S[C@@H]2SC[C@@H](OC(C)=O)[C@H](OC(C)=O)[C@H]2OC(C)=O)cc1 [Example 19a, 4-acetamidophenyl 2,3,4-tri-O-acetyl-1,5dithio-β-D-xylopyranoside] | 66% | – | –
23 | O=C(c1ccc(S[C@@H]2SC[C@@H](O)[C@H](O)[C@H]2O)cc1)C(F)(F)F [Example 20, 4-trifluoroacetylphenyl 1,5-dithio-β-D-xylopyranoside] | 49% | – | –
24 | Nc1cccc(S[C@@H]2SC[C@@H](O)[C@H](O)[C@H]2O)c1 [Example 21, 3-aminophenyl 1,5-dithio-β-D-xylopyranoside] | 31% | – | –
25 | N#Cc1ccc(O[C@@H]2SC[C@@H](O)[C@H](O)[C@H]2O)cc1 [Example 22, 4-cyanophenyl 5-thio-β-D-xylopyranoside] | 57% | – | –
26 | CC(=O)O[C@@H]1[C@@H](OC(C)=O)[C@H](OC(C)=O)CS[C@H]1Oc1ccc(C#N)cc1 [Example 22a, 4-cyanophenyl 2,3,4-tri-O-acetyl-5-thio-β-D-xylopyranoside] | 66% | – | –
27 | O=[N+]([O-])c1ccc(O[C@@H]2SC[C@@H](O)[C@H](O)[C@H]2O)cc1 [Example 23, 4-nitrophenyl 5-thio-β-D-xylopyranoside] | 37.5% | 94% | –
28 | CC(=O)O[C@@H]1[C@@H](OC(C)=O)[C@H](OC(C)=O)CS[C@H]1Oc1ccc([N+](=O)[O-])cc1 [Example 23a, 4-nitrophenyl 2,3,4-tri-O-acetyl-5-thio-β-D-xylopyranoside] | 44% | – | –
29 | CC(=O)c1ccc(O[C@@H]2SC[C@@H](O)[C@H](O)[C@H]2O)cc1 [Example 24, 4-acetylphenyl 5-thio-β-D-xylopyranoside] | 55% | 100% | –
30 | CC(=O)c1cccc(O[C@@H]2SC[C@@H](O)[C@H](O)[C@H]2O)c1 [Example 25, 3-acetylphenyl 5-thio-β-D-xylopyranoside] | 44.5% | – | –
31 | CC(=O)O[C@@H]1[C@@H](OC(C)=O)[C@H](OC(C)=O)CS[C@H]1Oc1cccc(C(C)=O)c1 [Example 25a, 3-acetylphenyl 2,3,4-tri-O-acetyl-5-thio-β-D-xylopyranoside] | 52% | – | –
32 | N#Cc1ccccc1O[C@@H]1SC[C@@H](O)[C@H](O)[C@H]1O [Example 26, 2-cyanophenyl 5-thio-β-D-xylopyranoside] | 63.5% | 96% | –
33 | N#Cc1cccc(O[C@@H]2SC[C@@H](O)[C@H](O)[C@H]2O)c1 [Example 27, 3-cyanophenyl 5-thio-β-D-xylopyranoside] | 66% | 98% | –
34 | CC(=O)O[C@@H]1[C@@H](OC(C)=O)[C@H](OC(C)=O)CS[C@H]1Oc1cccc(C#N)c1 [Example 27a, 3-cyanophenyl 2,3,4-tri-O-acetyl-5-thio-β-D-xylopyranoside] | 57% | – | –
35 | O=[N+]([O-])c1ccccc1O[C@@H]1SC[C@@H](O)[C@H](O)[C@H]1O [Example 28, 2-nitrophenyl 5-thio-β-D-xylopyranoside] | 51% | 94% | –
36 | CC(=O)c1ccccc1O[C@@H]1SC[C@@H](O)[C@H](O)[C@H]1O [Example 29, 2-acetylphenyl 5-thio-β-D-xylopyranoside] | 26% | – | –
37 | N#Cc1ccc2cc(O[C@@H]3SC[C@@H](O)[C@H](O)[C@H]3O)ccc2c1 [Example 30, 2-(6-cyanonaphthalenyl) 5-thio-β-D-xylopyranoside] | 51% | – | –
38 | N#Cc1c(O[C@@H]2SC[C@@H](O)[C@H](O)[C@H]2O)ccc2ccccc12 [Example 31, 2-(1-cyanonaphthalenyl) 5-thio-β-D-xylopyranoside] | 28% | – | –
39 | CC(=O)O[C@@H]1[C@@H](OC(C)=O)[C@H](OC(C)=O)CS[C@H]1Oc1ccc2ccccc2c1C#N [Example 31a, 2-(1-cyanonaphthalenyl) 2,3,4-tri-O-acetyl-5-thio-β-D-xylopyranoside] | 44.5% | – | –
